These are literature values, as cited in patent US20090081697A1, “Methods of growing crystals of free and antibiotic complexed large ribosomal subunits, and methods of rationally designing or identifying antibiotics using structure coordinate data derived from such crystals” (Yeda Research and Development Co. Ltd., priority 2001, published 2009).

Data set [1] has as its target ribosomes. Conditions: compared with erythromycin; Hansen et al. 1999.
The conditions of data set [2]: relative to erythromycin.
For data set [3], the system named is ribosomes. Conditions: Tenson et al. 1996.

As for `CC[C@H]1OC(=O)[C@H](C)C(=O)[C@H](C)[C@@H](O[C@@H]2O[C@H](C)C[C@H](N(C)C)[C@H]2O)[C@](C)(OC)C[C@@H](C)C(=O)[C@H](C)[C@@H](O)[C@]1(C)O` [RU56006], the Kd result in data set [1] is reported as “of the same order of magnitude as that of erythromycin”.

Take `CC[C@H]1OC(=O)[C@H](C)[C@@H](O[C@H]2C[C@@](C)(OC)[C@@H](O)[C@H](C)O2)[C@H](C)[C@@H](O[C@@H]2O[C@H](C)C[C@H](N(C)C)[C@H]2O)[C@](C)(OC)C[C@@H](C)C(=O)[C@H](C)[C@@H](O)[C@]1(C)O` [clarithromycin]: in data set [2], the acid stability entry is on record as “increased acid stability relative to erythromycin”.

Take `CC[C@H]1OC(=O)[C@H](C)[C@@H](O[C@H]2C[C@@](C)(OC)[C@@H](O)[C@H](C)O2)[C@H](C)[C@@H](O[C@@H]2O[C@H](C)C[C@H](N(C)C)[C@H]2O)[C@](C)(O)C[C@@H](C)C(=O)[C@H](C)[C@@H](O)[C@]1(C)O` [erythromycin]: in data set [3], the “length of peptides produced by erythromycin-bound ribosomes” value is on record as “up to 8 residues”.

Take `CC[C@H]1OC(=O)[C@H](C)[C@@H](O[C@H]2C[C@@](C)(OC)[C@@H](O)[C@H](C)O2)[C@H](C)[C@@H](O[C@@H]2O[C@H](C)C[C@H](N(C)C)[C@H]2O)[C@](C)(O)C[C@@H](C)/C(=N\OCOCCOC)[C@H](C)[C@@H](O)[C@]1(C)O` [roxithromycin]: in data set [2], the acid stability entry is “increased acid stability relative to erythromycin”.
